Source: patent publication US12611387B2, “Compound and composition for inducing neuroprotection” (REST THERAPEUTICS, priority 2020, dated 2026)

Assays:
[1] = test system: Aβ25-35 oligomer-intoxicated mice; assay: Morris water maze, symptomatic treatment; assay type: in vivo; conditions: symptomatic design (not shown)
Protocol: (§1) The test compounds were tested for their ability to decrease the cognitive symptoms of Aβ25-35 oligomer-induced neurodegeneration, i.e. their ability to provide symptomatic anti-amnestic treatment (FIGS. 1A and 1B). In brief, to test the symptomatic effect of the test compounds, they were administered 8 days after the icy injection of the Aβ25-35 oligomers, 30 minutes before the YMT and PAT memory tests were conducted or 30 minutes before the test, but after the training session, in the case of the MWT or ORT (FIG. 1A). The Hamlet Test® (FIG. 1B) involves a 2-week training session (4 hr/day) followed by a test (max. 10 min) under water deprivation conditions and under normal conditions; the Aβ25-35 peptide is injected after this first test. […]
This test is used to assess long-term spatial reference memory. […] The animals' swimming behaviour was recorded (Videotrack® software, Viewpoint), and the trajectories, latencies and distances covered were measured. […] Median latency (time taken to find the platform) was calculated for each training day and expressed for the group as the mean latency±standard deviation. […] Each mouse was left in the water for 60 seconds and its swimming behaviour was recorded. The time spent in the north-eastern quadrant, which originally contained the platform (T), was measured and compared to the average time spent in the other quadrants (o).

[2] = test system: Aβ25-35 oligomer-intoxicated mice; assay: Hamlet test, symptomatic treatment; assay type: in vivo, C57Bl/6j mice; conditions: 0.3 mg/Kg, symptomatic design
Protocol: as §1, with “1A).” for “1A). The Hamlet Test® (FIG. 1B) involves a 2-week training session (4 hr/day) followed by a test (max. 10 min) under water deprivation conditions and under normal conditions; the Aβ25-35 peptide is injected after this first test.”
The Hamlet Test® device, with a diameter of 1.2 m, comprises a central square (the agora) and streets that radiate out therefrom and lead to functionalised compartments or houses that allow a physiological function to be met or that enrich the environment. The walls and streets of the hamlet were made of infrared-transparent PVC, the test room was uniformly lit (200 Lux), infrared diodes were placed under the floor of the hamlet and an infrared camera recorded the behaviour of the animals. […]
This test was described by Crouzier et al. (2018 a and b). […] The exploratory behaviour was recorded alongside the time taken to find the Drink house and the number of errors made (number of entries into a street not leading to the Drink house). […] A disorientation index (DI) was calculated for each variable (time to find the drink house, number of errors): […]

[3] = test system: Aβ25-35 oligomer-intoxicated mice; assay: Object recognition test, symptomatic treatment; assay type: in vivo; conditions: symptomatic design (not shown)
Protocol: as §1, with “test. After one week, the compounds are administered and a second test under water deprivation conditions and under normal conditions is performed 30 min after injection.” for “test.”
This test is used to assess recognition memory abilities (Rodriguez Cruz et al., 2017; Maurice et al., 2019). […] The exploratory behaviour, activity and position of the animal's nose were recorded for 10 minutes (Nosetrack® software, Viewpoint, Lissieu, France). The number of contacts with the objects and the duration thereof were measured. […] The exploratory behaviour of each mouse was then also recorded for 10 minutes. […]
An exploration index was calculated using to the following formula: […]

For `NC12CC3CC(C1)CC(CCF)(C3)C2` [FENM, 3-(2-fluoroethyl)adamantan-1-amine], the “anti-amnestic effect in Morris water maze” value [1] was “confirmed”, the “disorientation index calculated for errors” value [2] was “reduced to the level of those of the untreated, non-intoxicated mice” and the “disorientation index calculated for latency” value [2] was “reduced to the level of those of the untreated, non-intoxicated mice”. For the same compound, the “anti-amnestic effect in object recognition” value [3] was “confirmed”.
